Converted amounts (≈) assume the structure as drawn.
Conditions: buffer; pH 7.4; 200.0 µM
`CC(NC(=O)c1cc2ccccc2o1)c1ccccc1` (centres undefined) gave a solubility kinetic of 0.0376 mg/mL (≈ 142 µM).
With `O=C(O)c1cccc2c1C(=O)N(CC1CCCO1)C2` (centres undefined) the solubility kinetic was over 0.0392 mg/mL.
With `O=C(c1ccc(CNS(=O)(=O)c2cccc(Cl)c2)cc1)N1CCCCC1` the solubility kinetic was 0.0026 mg/mL (≈ 6.62 µM).
For `O=C(O)Cc1ccc2c(c1)N(S(=O)(=O)c1cccs1)CC(C(=O)O)O2` (centres undefined), the solubility kinetic was over 0.0575 mg/mL.
Work on `COc1cc(CCC(=O)NCc2ccc(F)cc2)cc(OC)c1OC` yielded a solubility kinetic of over 0.0521 mg/mL.
Compound `COc1cc(NC(=O)c2ccc(OCc3c(C)noc3C)c(OC)c2)cc(OC)c1` has a solubility kinetic of 0.0054 mg/mL (≈ 13.1 µM).
Compound `Cc1ccccc1C(=O)NCCCNC(=O)c1ccccn1` has a solubility kinetic of over 0.0446 mg/mL.
`CC1CCCC(NC(=O)CSc2ccc(F)cc2)C1C` (centres undefined) gave a solubility kinetic of 0.0028 mg/mL (≈ 9.48 µM).
In the case of `O=C(CCc1ccncc1)N1CCCC(Nc2ccc(F)cc2)C1` (centres undefined), the solubility kinetic is reported as 0.0456 mg/mL (≈ 139 µM).
Work on `O=C(Nc1ccc(Cl)cc1)C1CCCCN1S(=O)(=O)c1ccccc1` (centres undefined) yielded a solubility kinetic of 0.0247 mg/mL (≈ 65.2 µM).
Work on `COc1ccc(C(=O)Nc2nc3ccccc3s2)c(OC)c1` yielded a solubility kinetic of 0.001 mg/mL (≈ 3.18 µM).
In the case of `Cc1ccc(OCC(=O)N2CCC3(CC2)CC(=O)c2ccccc2O3)cc1`, the solubility kinetic is reported as 0.0542 mg/mL (≈ 148 µM).
In the case of `COC(=O)c1ccc(COC(=O)CNC(=O)C2CCCCC2)cc1`, the solubility kinetic is reported as 0.0163 mg/mL (≈ 48.9 µM).
`O=C(O)c1ccccc1CSc1nc2ccccc2[nH]1` showed a solubility kinetic of over 0.0426 mg/mL.
In the case of `NS(=O)(=O)c1cccc(NC(=O)COC(=O)CCC(=O)c2cccs2)c1`, the solubility kinetic is reported as over 0.0595 mg/mL.
In the case of `CCCn1cnc2scc(-c3ccc(OC)cc3)c2c1=O`, the solubility kinetic is reported as 0.0139 mg/mL (≈ 46.3 µM).
`NC(=O)C1CCN(C(=O)c2ccccc2CCc2ccccc2)CC1` gave a solubility kinetic of over 0.0505 mg/mL.
Compound `Cc1ccc(NC(=O)CN(C)C(=O)COc2cccc3ccc(C)nc23)cc1` has a solubility kinetic of 0.0039 mg/mL (≈ 10.3 µM).
Compound `S=C(Nc1cccnc1)Nc1ccccn1` has a solubility kinetic of over 0.0345 mg/mL.
`CSc1ncccc1C(=O)OCC(=O)NC(C)(C)C` showed a solubility kinetic of over 0.0424 mg/mL.
`CSc1nc2nc(-c3cccs3)cc(C(F)(F)F)c2c(=O)[nH]1` gave a solubility kinetic of 0.0025 mg/mL (≈ 7.28 µM).
Compound `CCOc1ccccc1OCCC(=O)OCC(=O)c1ccc[nH]1` has a solubility kinetic of 0.0218 mg/mL (≈ 68.7 µM).
In the case of `O=C(Nc1ccc(Cl)c(Cl)c1)c1ccc2c(c1)OCO2`, the solubility kinetic is reported as under 0.0007 mg/mL.
`Cc1oc(C(C)(C)C)cc1C(=O)Nc1ccc(N2CCOCC2)cc1` gave a solubility kinetic of 0.0043 mg/mL (≈ 12.6 µM).
In the case of `CC(C)(C)C(=O)Nc1ccc(/C=C/C(=O)c2ccco2)cc1`, the solubility kinetic is reported as 0.0289 mg/mL (≈ 97.2 µM).
Work on `CCOc1ccc2nc(SCC(=O)NCC3CCCO3)sc2c1` (centres undefined) yielded a solubility kinetic of over 0.0529 mg/mL.
Compound `N#Cc1ccc(Sc2ccccn2)c([N+](=O)[O-])c1` has a solubility kinetic of 0.0365 mg/mL (≈ 142 µM).
Work on `Cc1ccc(S(=O)(=O)CCc2nc3ccccc3[nH]2)cc1C` yielded a solubility kinetic of over 0.0472 mg/mL.
`O=C(NC1CCN(C(=O)NCc2ccccc2)CC1)c1ccc(F)cc1` showed a solubility kinetic of 0.0093 mg/mL (≈ 26.2 µM).
For `Cc1c(C(=O)OCC(=O)N2CCCC2)cccc1[N+](=O)[O-]`, the solubility kinetic was over 0.0438 mg/mL.
For `COCCNC(=S)Nc1ccc2[nH]c(=O)[nH]c2c1`, the solubility kinetic was over 0.0399 mg/mL.
For `CNCCc1c[nH]c2ccc(O)cc12.O=C(O)C(=O)O`, the solubility kinetic was over 0.042 mg/mL.
For `O=C(c1ccc2c(c1)OCO2)N1CCC(Cc2ccccc2)CC1`, the solubility kinetic was 0.0416 mg/mL (≈ 129 µM).
Compound `Cc1cc(C)c2c(N)c(C(=O)N3CCc4ccccc4C3)sc2n1` has a solubility kinetic of 0.0055 mg/mL (≈ 16.3 µM).
Compound `Cc1cccnc1NC(=O)Nc1ccccc1` has a solubility kinetic of 0.0041 mg/mL (≈ 18 µM).
Work on `O=C(NCC(=O)N1CCCCC1)c1ccc2ccccc2c1` yielded a solubility kinetic of over 0.0445 mg/mL.
`COc1ccc(NC(=S)NCc2ccc(F)cc2)c(OC)c1` showed a solubility kinetic of over 0.0481 mg/mL.
With `O=C(COC(=O)c1cc(-c2ccccc2)nc2ccccc12)NC1CC1` the solubility kinetic was 0.0066 mg/mL (≈ 19.1 µM).
`CC(C)[C@H](NS(=O)(=O)c1cccc(C(F)(F)F)c1)C(=O)OCC(=O)NC(=O)NCc1ccco1` showed a solubility kinetic of 0.0134 mg/mL (≈ 26.5 µM).
Compound `O=C(NCCOc1ccc(Cl)cc1)C1CCCCC1` has a solubility kinetic of 0.0149 mg/mL (≈ 52.9 µM).
For `CCOC(=O)c1ccc(NC(C)=O)c([N+](=O)[O-])c1`, the solubility kinetic was over 0.0378 mg/mL.
With `CCc1ccccc1Cn1c(=O)oc2cccnc21` the solubility kinetic was over 0.0381 mg/mL.
Work on `NS(=O)(=O)c1cccc(NC(=O)C2CC(=O)N(Cc3ccco3)C2)c1` (centres undefined) yielded a solubility kinetic of over 0.0545 mg/mL.
With `O=C(O)c1nn(-c2ccc(F)cc2)ccc1=O` the solubility kinetic was over 0.0351 mg/mL.
For `CCc1nc2ccccc2n1CC1CC1(Cl)Cl` (centres undefined), the solubility kinetic was 0.0349 mg/mL (≈ 130 µM).
For `Cc1oc(S(=O)(=O)N2CCCC2)cc1C(=O)Nc1ccc(F)cc1`, the solubility kinetic was 0.0015 mg/mL (≈ 4.26 µM).
With `COc1cc2c(cc1OC)C(c1c(Cl)cccc1Cl)NC(=O)C2` (centres undefined) the solubility kinetic was over 0.0528 mg/mL.
`COCCNC(=O)C(=O)Nc1ccc(Cl)cc1C` showed a solubility kinetic of over 0.0406 mg/mL.
`Cc1ccc(C(=O)Nc2ccc3c(c2)OCCO3)cc1` showed a solubility kinetic of 0.0404 mg/mL (≈ 150 µM).
Work on `NC(=O)c1cc2c(s1)-c1cc(Cl)ccc1SC2` yielded a solubility kinetic of 0.0008 mg/mL (≈ 2.84 µM).
In the case of `Cc1cccc(C)c1OCC(=O)N1CCc2ccccc2C1`, the solubility kinetic is reported as 0.0345 mg/mL (≈ 117 µM).
Compound `Cc1ccccc1NC(=O)c1ccccc1N(C)S(=O)(=O)c1ccccc1` has a solubility kinetic of 0.0463 mg/mL (≈ 122 µM).
`CCCCCN1C=CC=C/C1=C\C=C(C#N)C#N` gave a solubility kinetic of 0.0069 mg/mL (≈ 28.8 µM).
Work on `Cc1ccc(O)c(NC(=O)c2ccc3c(c2)C(=O)N(CC(C)C)C3=O)c1` yielded a solubility kinetic of under 0.0004 mg/mL.
`CCCN1CCC(NC(=O)Cc2ccc(C)cc2)CC1` gave a solubility kinetic of 0.0397 mg/mL (≈ 145 µM).
For `O=C(Nc1ccc(Nc2ccccc2)cc1)c1ccc(F)cc1`, the solubility kinetic was 0.0007 mg/mL (≈ 2.29 µM).
Compound `C=CCN1C(=O)C2(OCCCO2)c2cccc(Cl)c21` has a solubility kinetic of 0.0151 mg/mL (≈ 54 µM).
For `O=c1[nH]c(/C=C/c2ccccc2Cl)c([N+](=O)[O-])c(=O)[nH]1`, the solubility kinetic was over 0.0441 mg/mL.
Work on `CN1CCCN(c2ccc([N+](=O)[O-])nc2)CC1` yielded a solubility kinetic of over 0.0354 mg/mL.
For `COc1ccc(C(=O)NCc2ccccc2C)cc1S(=O)(=O)NC1CCCC1`, the solubility kinetic was 0.0336 mg/mL (≈ 83.5 µM).
`COc1cc(/C(C)=N/N2CCOCC2)cc(OC)c1OC` showed a solubility kinetic of over 0.0442 mg/mL.
For `O=C(CN1CCN(c2ccc(O)cc2)CC1)N1CCc2ccccc21`, the solubility kinetic was 0.005 mg/mL (≈ 14.8 µM).
With `CCn1c(O)c(C=NC2CCCC(C)C2C)sc1=S` (centres undefined) the solubility kinetic was 0.0043 mg/mL (≈ 14.4 µM).
Work on `O=C(Nc1cccnc1)c1ccc(N2CCOCC2)c([N+](=O)[O-])c1` yielded a solubility kinetic of 0.0412 mg/mL (≈ 125 µM).
With `Cc1cc(C)nc(NC(N)=S)n1` the solubility kinetic was 0.0104 mg/mL (≈ 57.1 µM).
Compound `Cc1ccccc1NC(=S)Nc1ccc2[nH]c(=O)[nH]c2c1` has a solubility kinetic of 0.0417 mg/mL (≈ 140 µM).
`CC(=O)C(Sc1nccc(-c2cccs2)n1)C(C)=O` gave a solubility kinetic of 0.0405 mg/mL (≈ 139 µM).
Work on `O=C(COC(=O)c1cnccn1)Nc1ncc(C(F)(F)F)cc1Cl` yielded a solubility kinetic of 0.0534 mg/mL (≈ 148 µM).
Compound `CC(C)(C)c1ccc2c(c1)N(CC(=O)N1CCCC1)C(=O)CO2` has a solubility kinetic of over 0.0475 mg/mL.
Work on `Cc1ccc(-c2c(C(=O)O)c(C(=O)O)c3n2CSC3)cc1` yielded a solubility kinetic of over 0.0455 mg/mL.
`COc1ccc(C(=O)Nc2ccccc2C(=O)N2CCOCC2)cc1` showed a solubility kinetic of over 0.0511 mg/mL.
With `CC(=O)Nc1ccc(NC(=O)C(C)Sc2nnc(-c3ccc4c(c3)OCO4)o2)cc1` (centres undefined) the solubility kinetic was over 0.064 mg/mL.
Work on `CCOc1ccccc1CNCc1ccc(F)cc1.Cl` yielded a solubility kinetic of 0.0438 mg/mL.
In the case of `O=C(NCc1ccccc1F)C(c1ccccc1)c1ccccc1`, the solubility kinetic is reported as 0.0009 mg/mL (≈ 2.82 µM).
`CN(C)S(=O)(=O)c1cccc(C(=O)N2CCN(C(=O)C3CCCO3)CC2)c1` (centres undefined) showed a solubility kinetic of over 0.0593 mg/mL.
Compound `Cc1ccccc1Oc1ncnc(N)c1[N+](=O)[O-]` has a solubility kinetic of 0.0098 mg/mL (≈ 39.8 µM).
`CC(C)c1nc2sc3c(=O)[nH]c(=S)[nH]c3c2c2c1CCCC2` gave a solubility kinetic of 0.0459 mg/mL (≈ 138 µM).
In the case of `COc1ccc(C(=O)O)cc1S(=O)(=O)N1CCCc2ccccc21`, the solubility kinetic is reported as over 0.0521 mg/mL.
`CCc1sc(C(=O)NCc2ccco2)cc1Br` showed a solubility kinetic of 0.0259 mg/mL (≈ 82.4 µM).
Work on `Cc1ccc(Oc2ncccc2N)c2c1CCC2` yielded a solubility kinetic of 0.0101 mg/mL (≈ 42 µM).
For `Cc1ccc(/C=C(\C#N)C(=O)NC(C)c2ccccc2)o1` (centres undefined), the solubility kinetic was 0.0086 mg/mL (≈ 30.7 µM).
Work on `CCOC(=O)N1CCC(NC(=O)CCCC(=O)O)CC1` yielded a solubility kinetic of over 0.0429 mg/mL.
`COc1ccc(Nc2ccc(N3C(=O)CCC3=O)cc2[N+](=O)[O-])cn1` showed a solubility kinetic of 0.0031 mg/mL (≈ 9.06 µM).
`C/C(=N/NC(=O)C(C)n1nc(C)c([N+](=O)[O-])c1C)c1ccc(OCC(N)=O)cc1` (centres undefined) showed a solubility kinetic of over 0.0604 mg/mL.

Reference: PubChem BioAssay AID1996
